Data from patent publication US20220331301A1, “CYSTIC FIBROSIS TRANSMEMBRANE CONDUCTANCE REGULATOR MODULATORS FOR TREATING AUTOSOMAL RESESSIVE POLYCYSTIC KIDNEY DISEASE” (The Johns Hopkins University, priority 2021, published 2022).
Entries after “also recorded” stand apart in the source; their conditions may differ.

Legend:
PLD liver cells = test: Fura-2 Ca2+ release in PLD human liver cell lines; assay type: cell-based; conditions: VX-809 (10 μM) for 16 hours
Procedure: FIG. 17A-17F show Ca^2+ release in PLD human liver cell lines treated with VX-809. Intracellular Ca^2+ (F340/F380) levels were measured by ratiometric Fura-2 AM analysis of WT and PLD liver cells treated with VX-809 (10 μM) for 16 hours. FIG. 7A FIG. 7B show representative traces of ER Ca^2+ release in response to thapsigargin (4 μM) in WT and PLD liver cells treated with VX-809. FIG. 7C and FIG. 7D show resting Ca^2+ levels. FIG. 7E and FIG. 7F show the average amplitude of Ca^2+ release in response to thapsigargin. Amplitude was measured as the […] of the signal base to peak Δf/f. Significance between the two groups was analyzed using Student's t-test, n=5-6. ****P<0.0001.
The cells were loaded with the cell-permeant acetoxymethyl (AM) ester of the calcium indicator fura-2 (fura-2/AM) at 37° C. for 90 min. Measurements were made on a Zeiss inverted microscope equipped with a Sutter Lambda 10-2 controller and filter wheel assembly. A Zeiss FluorArc mercury lamp was used to excite the cells at 340 and 380 nm, and the emission response was measured at 510 nm. Cell fluorescence was measured in response to excitation for 1000 ms at 340 nm and 200 ms at 380 nm once every 4 s. Image acquisition, image analysis, and filter wheel control were performed with IPLab software (see Yanda et al., 2019b). […]

[1] = system: Pkhd1^del4/del4 cholangiocytes; test: Cyst growth of cholangiocytes on matrigel (3D culture); assay type: cell-based, mice; conditions: for cyst growth / cyst area: 10 μM continuous, cysts induced with Forskolin (10 μM)
Procedure: (§1) Note that the cysts treated with forskolin (for) grew larger. […] Note that the cysts treated with forskolin (for) grew larger. […] FIG. 3C for 1 wk. […] Cysts were induced with Forskolin (10 μM) for 24 hours prior to study. Columns represent means±standard error (SEM). **P<0.01 ****P<0.0001 (for all graphs). Statistical analysis was performed using an unpaired two-tailed Student's t-test;
as §1, with “4C” for “3C”
But cysts do develop from the Pkhd1del4/del4 cholangiocytes. Cyst growth is accelerated by forskolin (for). […] Yanda et al., 2018. The dosage of VX-809 injected was lower than the human pediatric dose, which is 500 mg of Lumacaftor per day; the adult dose is 800 mg/day.
(Methods and cells provided by the Yale O'Brian Center) To create the cholangiocyte cultures PKhd1del/4/del4, Garcia-Gonzalez et al., 2007, animals were crossed with mice transgenic for the Sv40 large T Antigen (strain name SV40 T-antigen JAX strain #002233). Segments of intrahepatic bile ducts were microdissected from livers perfused via the portal vein with molten agarose containing toluidine blue to mark the veins. The liver parenchyma was stripped until the biliary tree was identified and the bile duct units were seeded onto rat type I collagen coated plates. Cells were cultured under non-permissive conditions in the following medium: DMEM/F12 with 5% fetal bovine serum, 10 μL/mL insulin-transferrin selenium, 3.4 μg/mL triiodothyronine, 50,000 U penicillin/streptomycin under humidified conditions at 37° C. in 5% CO2. After one week, the cells were cultured under permissive conditions in the presence of 10 U of interferon-γ at 33° C. in 5% CO2. When confluent, cells were passaged by digesting the collagen slab below the cells (60 min; 37° C.; DMEM/F12 with 2 mg/mL dispase and 1 mg/mL collagenase type 11), then washed twice in PBS and plated onto collagen coated support systems. Clonal cell lines were generated by single cell isolation. Cells were differentiated for 10 days at 37° C. without interferon-γ for experimental use.

CFTR = test: Western blot of CFTR protein expression in cholangiocytes; assay type: cell-based, mice; conditions: Pkhd1del4/del4 cholangiocytes
Text: Please note the reduction of CFTR protein in Pkhd1del4/del4 cholangiocytes and the increase following VX-809 treatment;

Pkhd1^del3-4/del3-4 mice = test: Ki67 proliferation in bile duct epithelia of Pkhd1^del3-4/del3-4 mice; assay type: in vivo; conditions: 30 mg/kg every other day for 30 days
Text: FIG. 12A and FIG. 12B show Ki67 expression in WT and Pkhd1^del3-4/del3-4 mice bile duct epithelia. […] Merged red and green channels are shown, wherein yellow indicates colocalization; the white square indicates the area of enlargement shown. FIG. 12B summarizes the Pearson's Correlation coefficient R for the images of FIG. 12A. The graph compares the percentage of cells positive for Ki67. Number of cells analyzed for WT, n=196, Pkhd1^del3-4/del3-4, n=324, Pkhd1^del3-4/del3-4+VX-809, n=344 Samples were incubated with 5 μg/ml primary antibody Ki67 (Abcam #ab15580) and CK19 (Invitrogen #MA5-15884) in blocking buffer for 16 hours at 4° C. Goat anti-rabbit Alexa Fluor 594 and anti-mouse Alexa Flour 488 conjugated secondary antibodies were used at a 1/250 dilution for 1 hour to label the proteins. Scale bar is 10 μm. Bars represent the means±SEM. […]
Experiments were conducted during the development of embodiments of the technology described herein to test if CFTR correctors affect proliferation of cholangiocytes. In these experiments, proliferation in the livers of Pkhd1^del3-4/del3-4 cholangiocytes in bile duct epithelia was measured using confocal microscopy and the proliferation marker Ki67. […]

lumacaftor [VX-809]
resting Ca^2+ (PLD liver cells): not affected | thapsigargin-induced ER Ca^2+ release (PLD liver cells; thapsigargin (4 μM)): significantly lowered | cyst growth in 3D culture ([1]; Pkhd1del4/del4 cholangiocytes, time not stated): reduces growth; also recorded: can reduce cyst growth even in the presence of forskolin | cyst growth / cyst area ([1]; monitored for 1 week): reduced cyst growth in the presence of forskolin | cyst growth / cyst area ([1]; monitored for 72 hrs): reduced cyst growth in the presence of forskolin | CFTR protein level (CFTR): trends back to normal; also recorded: increase | Ki67 colocalization with CK19 in cholangiocytes (proliferation), Pearson's Correlation coefficient R (Pkhd1^del3-4/del3-4 mice): reduced proliferation; also recorded: reduces colocalization | percent cells positive for Ki67 (Pkhd1^del3-4/del3-4 mice): levels were reduced
